We go through 8 compounds from patent US9951088B2, “D2 receptor modulators and methods of use thereof in the treatment of diseases and disorders” (SUNOVION PHARMACEUTICALS INC., priority 2012, dated 2018).

In experiment [1] the target is T1, long isoform of human D2 receptor (Homo sapiens, UniProt P14416). Briefly: Arrestin Antagonist Assay (DRD2L PathHunter CHO-K1 cells, vs EC80 dopamine). Particulars: for Emax: CHO-K1, read-out: β-arrestin (antagonist mode) Imax.
Description: (§1) Cell Lines: Activities of the compounds were assessed using a Chinese Hamster Ovary (CHO—K1) cell line that recombinantly expressed the long isoform of human D2 receptor (DRD2L PathHunter cells). The D2 receptor DNA sequence was modified to contain a “ProLink” at its C-terminus which allowed complementation with an “enzyme acceptor” (EA)-tagged β-arrestin protein. The recruitment of the O-arrestin by the D2 receptor led to complementation of the ProLink and EA and formation of active β-galactosidase which generated a D2-specific signal that was measured.
Arrestin Antagonist Assay: One day prior to testing, a vial of high density stock of DRD2L PathHunter cells was thawed, and 1×10^7 cells diluted into 40 mL of growth media (Ham's F12/10% HI FBS/1% PSG). 20 μL cells per well were seeded directly into assay plates, and the plates were allowed to rest for 1 h at RT before incubating in a plate incubator overnight.
The plate was incubated for 30 min at 37° C. 15 μL PathHunter detection reagent was added to each well of the assay plate, which was then covered and incubated for 1 h at RT. The plate was read on an Envision reader using the Luminescence protocol, and the data were exported for analysis.
The IC50 values (concentration producing a half-maximal inhibitory response) were determined by non-linear regression analysis of the concentration-response curves.
Experiment [2] has as its target T1, long isoform of human D2 receptor. Briefly: Arrestin Agonist Assay (DRD2L PathHunter CHO-K1 cells, β-arrestin recruitment). Particulars: for Emax: CHO-K1, read-out: β-arrestin (agonist mode) Emax.
Description: as §1
Arrestin Agonist Assay: One day prior to testing, a vial of high density stock of DRD2L PathHunter cells was thawed, and 1×10^7 cells diluted into 40 mL of growth media (Ham's F12/10% HI FBS/1% PSG). 20 μL cells per well were seeded directly into assay plates, and the plates were allowed to rest for 1 h at RT before incubating in a plate incubator overnight.
5 μL diluted compound was added to cells in each well, and the assay plate was incubated for 90 min at 37° C. 12.5 μL PathHunter detection reagent was added to each well of the assay plate, which was then covered and incubated for 1 h at RT. The plate was read on an Envision reader using the Luminescence protocol, and the data were exported for analysis.
The agonist Emax results were expressed as a percent of the dopamine control response ((measured specific response/control specific agonist response)×100) obtained in the presence of test article. The EC50 values (concentration producing a half-maximal specific response) were determined by non-linear regression analysis of the concentration-response curves.
For experiment [3] the target is unchanged. The experiment is described as follows: cAMP HTRF Agonist Assay (DRD2L PathHunter CHO-K1 cells, forskolin-stimulated). Particulars: for Emax: CHO-K1, read-out: cAMP (agonist mode) Emax. Background: Time-resolved FRET reads energy transfer from a long-lived donor to a nearby acceptor.

Structures are written as SMILES.

T1 sequence (P14416 whole entry, canonical isoform): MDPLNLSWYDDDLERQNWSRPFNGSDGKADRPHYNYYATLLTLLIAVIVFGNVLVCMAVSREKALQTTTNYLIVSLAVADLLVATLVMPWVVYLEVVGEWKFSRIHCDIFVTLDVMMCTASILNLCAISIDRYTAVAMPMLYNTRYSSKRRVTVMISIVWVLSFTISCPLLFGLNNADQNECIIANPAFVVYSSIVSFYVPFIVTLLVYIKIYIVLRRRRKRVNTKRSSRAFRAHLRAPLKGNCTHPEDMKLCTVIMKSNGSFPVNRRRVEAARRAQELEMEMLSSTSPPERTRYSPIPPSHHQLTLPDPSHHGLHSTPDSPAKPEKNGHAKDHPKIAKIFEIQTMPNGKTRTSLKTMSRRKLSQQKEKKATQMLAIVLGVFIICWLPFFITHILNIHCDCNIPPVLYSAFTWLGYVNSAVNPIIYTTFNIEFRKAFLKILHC

In the case of `O=C1NCCc2ccc(OCCCCN3CCc4nn(-c5ccccn5)cc4C3)nc2N1` [Compound 90, 8-(4-(2-(pyridin-2-yl)-6,7-dihydro-2H-pyrazolo[4,3-c]pyridin-5(4H)-yl)butoxy)-4,5-dihydro-1H-pyrido[2,3-d][1,3]diazepin-2(3H)-one], the figures for the IC50 in experiment [1] and in experiment [3] were above 10000 nM and below 10 nM, respectively. The Emax in experiment [1] was below 10%; in experiment [2], above 75%; in experiment [3] it was above 75%. In experiment [2], the concentration for a half-maximal effect (EC50) (in general, the concentration giving half of the maximal effect) lay within 10 to 100 nM.
For `O=C1CCc2ccc(OCCCCN3CCn4cncc4C3)cc2N1` [Compound 33, 7-(4-(5,6-dihydroimidazo[1,5-a]pyrazin-7(8H)-yl)butoxy)-3,4-dihydroquinolin-2(1H)-one], in experiment [1], the half-inhibitory concentration (IC50) (usually the concentration that gives 50% inhibition) was in the range of 1000 to 10000 nM and the Emax is 50 to 75%. In experiment [2], the EC50 is above 10000 nM and the Emax is below 10%. In addition, in experiment [3], the IC50 is above 10000 nM and the Emax is below 10%.
`Oc1cccc2ccc(OCCCCN3CCN(c4cccc(Cl)c4Cl)CC3)nc12` [Compound 5, 2-(4-(4-(2,3-dichlorophenyl)piperazin-1-yl)butoxy)quinolin-8-ol]: in experiment [1], the IC50 lay in the range of 100 to 1000 nM and the Emax was above 75%. Moreover, in experiment [2], the EC50 was 10 to 100 nM and the Emax fell in the range of 10 to 25%. In experiment [3], the IC50 lay within 10 to 100 nM and the Emax lay in the range of 25 to 50%.
With `O=c1ccc2ccc(OCCCCN3CCc4nn(-c5ccccn5)cc4C3)nc2[nH]1` [Compound 67, 7-(4-(2-(pyridin-2-yl)-6,7-dihydro-2H-pyrazolo[4,3-c]pyridin-5(4H)-yl)butoxy)-1,8-naphthyridin-2(1H)-one], the results for the concentration for half-maximal inhibition (IC50) in experiment [1] and in experiment [3] were 100 to 1000 nM and 10 to 100 nM, respectively. Further, the Emax is above 75% in experiment [1], below 10% in experiment [2] and 10 to 25% in experiment [3]. Further, the EC50 in experiment [2] was above 10000 nM.
As for `O=C1NCCc2ccc(OCCCCN3CCc4cc(F)ccc4C3)nc2N1` [Compound 84, 8-(4-(6-fluoro-3,4-dihydroisoquinolin-2(1H)-yl)butoxy)-4,5-dihydro-1H-pyrido[2,3-d][1,3]diazepin-2(3H)-one], in experiment [1], the half-inhibitory concentration (IC50) lay in the range of 10 to 100 nM and the Emax was above 75%. In experiment [2], the EC50 is above 10000 nM and the Emax was below 10%. In experiment [3], the IC50 was above 10000 nM and the Emax was below 10%.
Regarding `Clc1cccc(N2CCN(CCCCOc3cccc(-c4cc[nH]n4)n3)CC2)c1Cl` [Compound 46, 1-(4-((6-(1H-pyrazol-3-yl)pyridin-2-yl)oxy)butyl)-4-(2,3-dichlorophenyl)piperazine], in experiment [1], the IC50 was below 10 nM and the Emax was 50 to 75%. Moreover, in experiment [2], the concentration giving a half-maximal response (EC50) is below 10 nM and the Emax was 10 to 25%. Also, in experiment [3], the IC50 is below 10 nM and the Emax lay in the range of 50 to 75%.
With `O=C1CCc2ccc(OCCCCN3CCc4nn(-c5cccc(F)c5)cc4C3)cc2N1` [Compound 36, 7-(4-(2-(3-fluorophenyl)-6,7-dihydro-2H-pyrazolo[4,3-c]pyridin-5(4H)-yl)butoxy)-3,4-dihydroquinolin-2(1H)-one], in experiment [1], the IC50 is above 10000 nM and the Emax was below 10%. Besides, in experiment [2], the EC50 is below 10 nM and the Emax is above 75%. In experiment [3], the IC50 is below 10 nM and the Emax is above 75%.
Turning to `O=C1CCc2ccc(OCCCCN3CCc4ccsc4C3)cc2N1` [Compound 28, 7-(4-(4,5-dihydrothieno[2,3-c]pyridin-6(7H)-yl)butoxy)-3,4-dihydroquinolin-2(1H)-one], the IC50 was 100 to 1000 nM in experiment [1] and below 10 nM in experiment [3]. The results for the Emax in experiment [1], in experiment [2] and in experiment [3] were above 75%, below 10% and 10 to 25%, respectively. In experiment [2], this compound showed an EC50 above 10000 nM.
